Common to all, as to experiment: Post-emergence herbicidal glasshouse test, percentage damage to the plant
Holding throughout (assay type): in vivo
Conditions in all cases: post-emergence, 1000 g/ha, evaluated after 13 days

Test [1] has as its system Ipomoea hederacea (IPOHE). An outline of the steps:
(§1)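 Activity appears as a score from 1 (0-19% damage) to 5 (80-100%), assessed 13 days after a post-emergence spray of 8-day-old plants. Comparative runs used 250, 500 and 1000 g/ha; the standard rate was 1000 g/ha, formulated in acetone/water (50:50) with 0.5% Tween 20.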

For a further test, the system named is Setaria faberi (SETFA). Summed up: as §1
For a further test, the system named is Solanum nigrum (SOLNI). Summed up:
as §1

The subject of test [2] is Echinochloa crus-galli (ECHCG). An outline of the steps:
as §1

In test [3] the test system is Amaranthus retoflexus (AMARE). An outline of the steps: as §1
Test [4] has as its system Alopecurus myosuroides (ALOMY). Summed up:
as §1

Structures are written as SMILES.

Consider `CC1=NN(C)C(=O)C(n2c(C)c(Cl)c3ccccc32)C1=O` (stereo not drawn) [Compound 4.027], for which the “POST Application IPOHE, percentage damage (five point scale)” value in test [1] is on record as 5 (5=80-100%). For the same compound, in the test on Setaria faberi (SETFA), the “POST Application SETFA, percentage damage (five point scale)” value is listed as 4 (4=60-79%). Also, the “POST Application SOLNI, percentage damage (five point scale)” value in the test with Solanum nigrum (SOLNI) was 5 (5=80-100%). The “POST Application ECHCG, percentage damage (five point scale)” value in test [2] was 5 (5=80-100%). Moreover, the “POST Application AMARE, percentage damage (five point scale)” value in test [3] is reported as 5 (5=80-100%). In test [4], the “POST Application ALOMY, percentage damage (five point scale)” value is reported as 3 (3=40-59%).

As for `CCC1=NN(C)C(=O)C(n2c(Cl)c(Cl)c3ccccc32)C1=O` (stereo not drawn) [Compound 2.027], the “POST Application IPOHE, percentage damage (five point scale)” value in test [1] is given as 5 (5=80-100%). Besides, the “POST Application SETFA, percentage damage (five point scale)” value in the test on Setaria faberi (SETFA) is 1 (1=0-19%). The “POST Application SOLNI, percentage damage (five point scale)” value in the test on Solanum nigrum (SOLNI) is 5 (5=80-100%). For the same compound, the “POST Application ECHCG, percentage damage (five point scale)” value in test [2] was 1 (1=0-19%). Besides, the “POST Application AMARE, percentage damage (five point scale)” value in test [3] is on record as 4 (4=60-79%). For the same compound, in test [4], the “POST Application ALOMY, percentage damage (five point scale)” value is given as 1 (1=0-19%).

For `CC(C)COC1=NN(C)C(=O)C(n2c(Cl)c(Cl)c3ccccc32)C1=O` (stereo not drawn) [Compound 2.019], in test [1], the “POST Application IPOHE, percentage damage (five point scale)” value was 2 (2=20-39%). Also, the “POST Application SETFA, percentage damage (five point scale)” value with Setaria faberi (SETFA) is given as 1 (1=0-19%). Moreover, the “POST Application SOLNI, percentage damage (five point scale)” value with Solanum nigrum (SOLNI) is recorded as 4 (4=60-79%). For the same compound, the “POST Application ECHCG, percentage damage (five point scale)” value in test [2] is listed as 1 (1=0-19%). Further, the “POST Application AMARE, percentage damage (five point scale)” value in test [3] was 4 (4=60-79%). In addition, in test [4], the “POST Application ALOMY, percentage damage (five point scale)” value is listed as 1 (1=0-19%).

Consider `CC1=NN(C)C(=O)C(n2ccc3ccccc32)C1=O` (stereo not drawn) [Compound 1.002], for which, in test [1], the “POST Application IPOHE, percentage damage (five point scale)” value is listed as 4 (4=60-79%). The “POST Application SETFA, percentage damage (five point scale)” value in the test on Setaria faberi (SETFA) is given as 1 (1=0-19%). In addition, in the test with Solanum nigrum (SOLNI), the “POST Application SOLNI, percentage damage (five point scale)” value is given as 5 (5=80-100%). The “POST Application ECHCG, percentage damage (five point scale)” value in test [2] is on record as 1 (1=0-19%). Besides, the “POST Application AMARE, percentage damage (five point scale)” value in test [3] is 4 (4=60-79%). For the same compound, in test [4], the “POST Application ALOMY, percentage damage (five point scale)” value is listed as 1 (1=0-19%).

Regarding `CN(C)C1=NN(C)C(=O)C(n2c(Cl)c(Cl)c3ccccc32)C1=O` (stereo not drawn) [Compound 2.021], the “POST Application IPOHE, percentage damage (five point scale)” value in test [1] is listed as 3 (3=40-59%). Besides, the “POST Application SETFA, percentage damage (five point scale)” value with Setaria faberi (SETFA) is listed as 1 (1=0-19%). In addition, the “POST Application SOLNI, percentage damage (five point scale)” value in the test with Solanum nigrum (SOLNI) is given as 4 (4=60-79%). In addition, in test [2], the “POST Application ECHCG, percentage damage (five point scale)” value is 1 (1=0-19%). For the same compound, the “POST Application AMARE, percentage damage (five point scale)” value in test [3] is given as 3 (3=40-59%). Besides, in test [4], the “POST Application ALOMY, percentage damage (five point scale)” value was 2 (2=20-39%).

With `CN1N=C(OCC(F)(F)F)C(=O)C(n2c(Cl)c(Cl)c3ccccc32)C1=O` (stereo not drawn) [Compound 2.024], the “POST Application IPOHE, percentage damage (five point scale)” value in test [1] was 1 (1=0-19%). Further, in the test with Setaria faberi (SETFA), the “POST Application SETFA, percentage damage (five point scale)” value is 1 (1=0-19%). The “POST Application SOLNI, percentage damage (five point scale)” value in the test on Solanum nigrum (SOLNI) is 2 (2=20-39%). The “POST Application ECHCG, percentage damage (five point scale)” value in test [2] is 1 (1=0-19%). Moreover, the “POST Application AMARE, percentage damage (five point scale)” value in test [3] was 2 (2=20-39%). Besides, in test [4], the “POST Application ALOMY, percentage damage (five point scale)” value is given as 1 (1=0-19%).

As to `CC1=NN(C)C(=O)C(n2c(Cl)c(Cl)c3ccccc32)C1=O` (stereo not drawn) [Compound 1.003, 4-(2,3-dichloroindol-1-yl)-2,6-dimethyl-pyridazine-3,5-dione], in test [1], the “POST Application IPOHE, percentage damage (five point scale)” value is given as 5 (5=80-100%). In addition, the “POST Application SETFA, percentage damage (five point scale)” value with Setaria faberi (SETFA) is 1 (1=0-19%). In the test with Solanum nigrum (SOLNI), the “POST Application SOLNI, percentage damage (five point scale)” value is listed as 5 (5=80-100%). In addition, in test [2], the “POST Application ECHCG, percentage damage (five point scale)” value was 2 (2=20-39%). The “POST Application AMARE, percentage damage (five point scale)” value in test [3] is given as 5 (5=80-100%). The “POST Application ALOMY, percentage damage (five point scale)” value in test [4] was 1 (1=0-19%).

Take `CC[S+]([O-])C1=NN(C)C(=O)C(n2c(Cl)c(Cl)c3ccccc32)C1=O` (stereo not drawn) [Compound 2.006]: in test [1], the “POST Application IPOHE, percentage damage (five point scale)” value is given as 4 (4=60-79%). The “POST Application SETFA, percentage damage (five point scale)” value in the test on Setaria faberi (SETFA) was 1 (1=0-19%). For the same compound, in the test on Solanum nigrum (SOLNI), the “POST Application SOLNI, percentage damage (five point scale)” value is 4 (4=60-79%). In test [2], the “POST Application ECHCG, percentage damage (five point scale)” value is recorded as 1 (1=0-19%). For the same compound, the “POST Application AMARE, percentage damage (five point scale)” value in test [3] was 1 (1=0-19%). Also, in test [4], the “POST Application ALOMY, percentage damage (five point scale)” value is reported as 1 (1=0-19%).

In the case of `Cc1nn(C)c(=O)c(-n2c(Cl)c(Cl)c3ccccc32)c1OC(=O)N1CCOCC1` [Compound 3.002], the “POST Application IPOHE, percentage damage (five point scale)” value in test [1] was 5 (5=80-100%). Also, the “POST Application SETFA, percentage damage (five point scale)” value in the test with Setaria faberi (SETFA) is recorded as 1 (1=0-19%). Besides, the “POST Application SOLNI, percentage damage (five point scale)” value with Solanum nigrum (SOLNI) is 5 (5=80-100%). In addition, the “POST Application ECHCG, percentage damage (five point scale)” value in test [2] was 1 (1=0-19%). For the same compound, in test [3], the “POST Application AMARE, percentage damage (five point scale)” value is 2 (2=20-39%). Also, in test [4], the “POST Application ALOMY, percentage damage (five point scale)” value is 1 (1=0-19%).

Take `Cc1nn(C)c(=O)c(-n2c(Cl)c(Cl)c3ccccc32)c1OC(=O)SC(C)C` [Compound 3.001, [5-(2,3-dichloroindol-1-yl)-1,3-dimethyl-6-oxo-pyridazin-4-yl]isopropylsulfanylformate]: in test [1], the “POST Application IPOHE, percentage damage (five point scale)” value is listed as 5 (5=80-100%). Further, the “POST Application SETFA, percentage damage (five point scale)” value with Setaria faberi (SETFA) is 1 (1=0-19%). The “POST Application SOLNI, percentage damage (five point scale)” value with Solanum nigrum (SOLNI) is 5 (5=80-100%). The “POST Application ECHCG, percentage damage (five point scale)” value in test [2] is recorded as 1 (1=0-19%). Moreover, the “POST Application AMARE, percentage damage (five point scale)” value in test [3] is listed as 5 (5=80-100%). Moreover, the “POST Application ALOMY, percentage damage (five point scale)” value in test [4] is reported as 1 (1=0-19%).

As to `CN1N=C(C(F)F)C(=O)C(n2c(Cl)c(Cl)c3ccccc32)C1=O` (stereo not drawn) [Compound 2.002], the “POST Application IPOHE, percentage damage (five point scale)” value in test [1] is given as 5 (5=80-100%). Further, the “POST Application SETFA, percentage damage (five point scale)” value with Setaria faberi (SETFA) is reported as 1 (1=0-19%). For the same compound, the “POST Application SOLNI, percentage damage (five point scale)” value in the test with Solanum nigrum (SOLNI) was 5 (5=80-100%). The “POST Application ECHCG, percentage damage (five point scale)” value in test [2] is 1 (1=0-19%). Also, the “POST Application AMARE, percentage damage (five point scale)” value in test [3] was 5 (5=80-100%). For the same compound, in test [4], the “POST Application ALOMY, percentage damage (five point scale)” value is 1 (1=0-19%).

In the case of `CN1N=CC(=O)C(n2ncc3ccccc32)C1=O` (stereo not drawn) [Compound 1.009], the “POST Application IPOHE, percentage damage (five point scale)” value in test [1] was 1 (1=0-19%). Further, the “POST Application SETFA, percentage damage (five point scale)” value in the test with Setaria faberi (SETFA) is 1 (1=0-19%). Also, the “POST Application SOLNI, percentage damage (five point scale)” value in the test with Solanum nigrum (SOLNI) is on record as 4 (4=60-79%). Further, the “POST Application ECHCG, percentage damage (five point scale)” value in test [2] is reported as 1 (1=0-19%). Besides, in test [3], the “POST Application AMARE, percentage damage (five point scale)” value is 4 (4=60-79%). Also, in test [4], the “POST Application ALOMY, percentage damage (five point scale)” value is 1 (1=0-19%).

Take `COC(=O)Oc1c(C)nn(C)c(=O)c1-n1c(Cl)c(Cl)c2ccccc21` [Compound 3.004]: in test [1], the “POST Application IPOHE, percentage damage (five point scale)” value is given as 5 (5=80-100%). Besides, the “POST Application SETFA, percentage damage (five point scale)” value in the test on Setaria faberi (SETFA) is recorded as 2 (2=20-39%). In the test with Solanum nigrum (SOLNI), the “POST Application SOLNI, percentage damage (five point scale)” value was 5 (5=80-100%). The “POST Application ECHCG, percentage damage (five point scale)” value in test [2] was 4 (4=60-79%). Moreover, in test [3], the “POST Application AMARE, percentage damage (five point scale)” value was 5 (5=80-100%). Moreover, the “POST Application ALOMY, percentage damage (five point scale)” value in test [4] is 2 (2=20-39%).

For the origin of these results see patent US9049864B2, “Pyridazinone herbicidal compounds” (Syngenta Limited, priority 2012, dated 2015).
